Several values for one entry are separate records, joined by “and”; a condition that tells them apart may be missing. Equal entries are not always repeated. Entries after “also recorded” stand apart in the source; their conditions may differ.
Experiments:
HUVEC cells = assay: Flow cytometry / FACS apoptosis (Sub G1, propidium iodide); assay type: cell-based, human; details: 24 hours
Experimental: (§1) About 2×10^6 HUVEC and PC3 cells were treated with different concentrations of GA at 37° C. in a 5% CO2 incubator for 24 hours. The cells were collected and flow cytometry was performed using a FACS Vantage SE DiVa flow cytometer (Becton Dickinson) with propidium iodide staining. The cell population percentages at Sub G1 were defined as apoptotic cells.

PC3 cells = assay: as above; assay type: cell-based, human; details: 24 hours
Experimental: as §1

mice aortic rings = assay: Aortic ring assay (micro-vessel growth); assay type: cell-based; details: 10 nM GA, 4 days incubation
Experimental: Forty-eight-well plates were covered with 100 μl of Matrigel at 4° C. and incubated at 37° C., 5% CO2 for 30 minutes. Aortas isolated from mice were cleaned of periadventitial fat and connective tissues, and cut into about 1-1.5 mm-long rings. After being rinsed five times with endothelial cell-based medium, the aortas were placed on the Matrigel covered wells and covered with another 100 μl of Matrigel. Artery rings were cultured in 1.5 ml of ECGM medium without serum for 24 hours. The medium was then replaced with 1.5 ml of ECGM medium supplemented with or without GA. The medium was changed every two days with the exact composition as described above. After 4 days incubation, the micro-vessel growth was quantified in the mouse aortic ring assay by taking photographs with an Olympus IX 70 inverted microscope using a 4× objective lens. After images were acquired, the outgrowth area was delineated and measured with Pro Plus software (Media Cybernetics).

[1] = tested on: PC3 human prostate tumor cells in SCID male mice; assay type: in vivo
Experimental: The 5-6 week old severe combined immune deficiency (SCID) male mice (ordered from NIH, each weighing about 20 g) were divided into groups of five mice per group. Log-phase PC3 human prostate tumor cells were subcutaneously injected (2×10^6 cell per mouse) into the mice. After the tumors had become established (about 50 mm^3), the mice were subcutaneously injected with or without 3 mg/kg GA every day. The mice body weights and tumor sizes were recorded every day and the tumor sizes were determined by Vernier caliper measurements and calculated as length×width×height. After 15 days, mice with subcutaneous (hereinafter, s.c.) tumors no greater than 1.5 cm in diameter were sacrificed in accordance with University of California Los Angeles Animal Rights Committee Guidelines. The tumors were removed and fixed with Histochoice® MB (Molecular Biology) tissue fixative (Amresco®) and embedded with paraffin. The 5 μm sections were performed specific blood vessel staining with CHEMICON's Blood Vessel Staining Kit (von Willebrand Factor, Chemicon International, blood vessel staining kit, peroxidase system). Images were taken with a ZEISS Axioskop 40 photomicroscope. The number of blood vessels in the high power fields (HPF, 200×) was counted (plug number=4-5, t-test, p<0.005).

AKT = AKT phosphorylation (pSer473) in HUVEC cells (immunoprecipitation, Western blotting); assay type: cell-based, human; details: HUVEC cells with or without VEGF, increasing concentration of GA
Experimental: After starvation in ECGM medium without serum overnight, HUVEC cells were washed with 1×PBS twice, followed with incubation in M199 medium. HUVEC cells were then treated with 1 nM of GA and/or 4 nM of VEGF for 5 minutes, then subjected to immunoprecipitation using anti-VEGFR2 antibody. Anti-phosphotyrosine antibody was used for the detection of phosphorylation of the tyrosine residue of VEGFR2. […] Reaction cocktail containing 100 ng of active VEGFR2 was incubated with different concentrations of GA for 5 minutes at room temperature. Substrate peptide cocktail was added to the pre-incubated reaction cocktail/GA compound. After incubation at room temperature for 30 minutes, stop buffer was added to halt the reaction. 25 μl of each reaction was then transferred with 75 μl dH2O per well into a 96-well streptavidin coated plate and incubated at room temperature for 60 minutes. […] The stop solution was added and the plate was detected at 405 nm. […]
HUVEC cells pretreated with or without 4 nM VEGF for 5 min were treated with or without different concentrations of GA for another 5 minutes. […] Anti-cleaved caspase 3 antibody (Santa Cruz Biotech) was used for detecting cleaved caspase 3 and polyADP ribose polymerase (PARP) cleavage was detected by an anti-PARP p85 fragment (Promega) in apoptosis assays.

mouse cornea = assay: VEGF induced corneal angiogenesis, mouse corneal model; assay type: in vivo; details: 2.5 μg/ml GA, 160 ng/ml VEGF
mice exposed to OIR = assay: Mouse oxygen-induced ischemic retinopathy (OIR) model, retinal neovascularization; assay type: in vivo; details: GA 10 mg/kg, P17 mice exposed to OIR, p<0.001
Experimental: FIG. 9B is a bar graph providing a quantitative assessments of retinal neovascularization in eyes from P17 control and GA-treated mice exposed to OIR. Data in each column are the mean SD values from four eyes of four mice. […] GA concentration was used as 10 mg/kg for this mouse model. Assessment of retinal neovasculature in control (left) and GA-treated (right) mice during OIR.P7 mice were exposed to a cycle of hyperoxia and normoxia, and eyes were removed for appropriate analysis. The abnormal angiogenesis associated with vitreal invasion can be seen as glomeruloid-like tufts of cell (arrow).

## CC(C)=CCC[C@]1(C)C=Cc2c(O)c3c(c(CC=C(C)C)c2O1)O[C@]12C(=C[C@@H]4C[C@H]1C(C)(C)O[C@@]2(C/C=C(/C)C(=O)O)C4=O)C3=O [GA, gambogic acid]
HUVEC cells; GA 20 nM
  Apoptotic population: 11.6 ± 1.1 % of total
HUVEC cells; GA 40 nM
  Apoptotic population: 14.4 ± 2.3 % of total
HUVEC cells; GA 80 nM
  Apoptotic population: 40 % of total and 40 ± 3.6 % of total
HUVEC cells; GA 100 nM
  Apoptotic population: 57.6 ± 4.7 % of total
PC3 cells; GA 20 nM
  Apoptotic population: 1.6 ± 0.3 % of total
PC3 cells; GA 40 nM
  Apoptotic population: 2.9 ± 0.4 % of total
PC3 cells; GA 80 nM
  Apoptotic population: 4 % of total and 4.3 ± 0.5 % of total
PC3 cells; GA 100 nM
  Apoptotic population: 13.8 ± 3.6 % of total
Mice aortic rings
  New vessel growth from aortic rings: inhibited almost all new vessel growth
[1]; 3 mg/kg GA every day s.c., 15 days
  Tumor size after 15 days: 169.1±25.6 mm^3 and 127.4±25.6 mm^3
[1]; 3 mg/kg GA every day, 15 days, HPF 200×
  Average vessel number in tumors: 1.8±1.3 per HPF
[1]; GA treated group, before 3 mg/kg GA every day
  Tumor size at start of treatment: 51.74±3.8 mm^3
[1]; mouse, in vivo
  Average body weight at start: 22.4 ± 1 g
AKT
  Phosphorylation and activation of AKT (pSer473): inhibited AKT phosphorylation and activation
Mouse cornea
  VEGF induced corneal angiogenesis: significantly inhibits corneal angiogenesis; also recorded: dramatically inhibits
Mice exposed to OIR
  Retinal neovascularization: significantly inhibits retinal neovascularization; also recorded: significant difference in the degree of neovascularization

— patent US20090259054A1, “Methods and Compositions for the Treatment of Angiogenesis and Macular Degeneration” (The Texas A&M University System, priority 2008, published 2009)
